Reference: paper PMC12090182, “Repurposing of the RIPK1-Selective Benzo[1,4]oxazepin-4-one Scaffold for the Development of a Type III LIMK1/2 Inhibitor” (ACS Chemical Biology, 2025)

Key:
Format in all cases: cell-based
Details in all cases: HEK-293T; 1 μM inhibitor, HEK293T cells
[1] = biological target: AURKA (Homo sapiens, UniProt O14965)
Method in brief: (§1)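 Steps: FuGene HD/DNA complexation 30 min; HEK293T addition; 20 h expression; Tracer K10 plus 1 μM inhibitor; substrate; luminescence at 450 nm and 610 nm. Output is per-kinase occupancy.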

[2] = biological target: BMP2K (Homo sapiens, UniProt Q9NSY1)
Method in brief: as §1

[3] = biological target: BRSK2 (Homo sapiens, UniProt Q8IWQ3)
Method in brief: as §1

[4] = biological target: CDK14 (Homo sapiens, UniProt O94921)
Method in brief: as §1

[5] = biological target: CDK15 (Homo sapiens, UniProt Q96Q40)
Method in brief: as §1

[6] = biological target: CDK2 (Homo sapiens, UniProt P24941)
Method in brief: as §1

[7] = biological target: CDK3 (Homo sapiens, UniProt Q00526)
Method in brief: as §1

[8] = biological target: CDKL1 (Homo sapiens, UniProt Q00532)
Method in brief: as §1

[9] = biological target: CDKL5 (Homo sapiens, UniProt O76039)
Method in brief: as §1

[10] = biological target: EPHA4 (Homo sapiens, UniProt P54764)
Method in brief: as §1

[11] = biological target: FER (Homo sapiens, UniProt P16591)
Method in brief: as §1

[12] = biological target: FLT3 (Homo sapiens, UniProt P36888)
Method in brief: as §1

[13] = biological target: HIPK2 (Homo sapiens, UniProt Q9H2X6)
Method in brief: as §1

[14] = biological target: HIPK3 (Homo sapiens, UniProt Q9H422)
Method in brief: as §1

[15] = biological target: ICK (Homo sapiens, UniProt Q9UPZ9)
Method in brief: as §1

[16] = biological target: IRAK4 (Homo sapiens, UniProt Q9NWZ3)
Method in brief: as §1

[17] = biological target: ITK (Homo sapiens, UniProt Q08881)
Method in brief: as §1

[18] = biological target: MAP3K11 (Homo sapiens, UniProt Q16584)
Method in brief: as §1

[19] = biological target: MAP3K2 (Homo sapiens, UniProt Q9Y2U5)
Method in brief: as §1

[20] = biological target: MAPK14 (Homo sapiens, UniProt Q16539)
Method in brief: as §1

[21] = biological target: MAPK9 (Homo sapiens, UniProt P45984)
Method in brief: as §1

[22] = biological target: MELK (Homo sapiens, UniProt Q14680)
Method in brief: as §1

[23] = biological target: MERTK (Homo sapiens, UniProt Q12866)
Method in brief: as §1

[24] = biological target: MKNK2 (Homo sapiens, UniProt Q9HBH9)
Method in brief: as §1

[25] = biological target: MUSK (Homo sapiens, UniProt O15146)
Method in brief: as §1

[26] = biological target: NEK9 (Homo sapiens, UniProt Q8TD19)
Method in brief: as §1

[27] = biological target: PHKG2 (Homo sapiens, UniProt P15735)
Method in brief: as §1

[28] = biological target: PRKACA (Homo sapiens, UniProt P17612)
Method in brief: as §1

[29] = biological target: PTK6 (Homo sapiens, UniProt Q13882)
Method in brief: as §1

[30] = biological target: SIK3 FL (Homo sapiens, UniProt Q9Y2K2)
Method in brief: as §1

[31] = biological target: SNRK (Homo sapiens, UniProt Q9NRH2)
Method in brief: as §1

[32] = biological target: STK17B (Homo sapiens, UniProt O94768)
Method in brief: as §1

[33] = biological target: STK3 (Homo sapiens, UniProt Q13188)
Method in brief: as §1

[34] = biological target: STK33 (Homo sapiens, UniProt Q9BYT3)
Method in brief: as §1

[35] = biological target: STK36 (Homo sapiens, UniProt Q9NRP7)
Method in brief: as §1

[36] = biological target: TEC (Homo sapiens, UniProt P42680)
Method in brief: as §1

[37] = biological target: WEE1 (Homo sapiens, UniProt P30291)
Method in brief: as §1

Sequence of CDK15 (Q96Q40 whole entry): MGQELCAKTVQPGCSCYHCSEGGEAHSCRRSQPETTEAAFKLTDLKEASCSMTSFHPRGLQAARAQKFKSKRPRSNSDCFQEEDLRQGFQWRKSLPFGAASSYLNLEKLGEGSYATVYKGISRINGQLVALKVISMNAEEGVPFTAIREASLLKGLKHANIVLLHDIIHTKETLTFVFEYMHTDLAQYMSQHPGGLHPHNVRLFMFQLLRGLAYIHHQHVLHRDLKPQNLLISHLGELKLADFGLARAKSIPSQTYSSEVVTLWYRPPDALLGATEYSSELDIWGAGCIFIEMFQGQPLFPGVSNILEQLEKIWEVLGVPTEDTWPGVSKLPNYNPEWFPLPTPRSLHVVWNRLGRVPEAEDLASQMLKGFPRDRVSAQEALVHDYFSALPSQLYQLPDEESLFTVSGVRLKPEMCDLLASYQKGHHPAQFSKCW
Sequence of CDK15 (Q8ND76 whole entry, further chain): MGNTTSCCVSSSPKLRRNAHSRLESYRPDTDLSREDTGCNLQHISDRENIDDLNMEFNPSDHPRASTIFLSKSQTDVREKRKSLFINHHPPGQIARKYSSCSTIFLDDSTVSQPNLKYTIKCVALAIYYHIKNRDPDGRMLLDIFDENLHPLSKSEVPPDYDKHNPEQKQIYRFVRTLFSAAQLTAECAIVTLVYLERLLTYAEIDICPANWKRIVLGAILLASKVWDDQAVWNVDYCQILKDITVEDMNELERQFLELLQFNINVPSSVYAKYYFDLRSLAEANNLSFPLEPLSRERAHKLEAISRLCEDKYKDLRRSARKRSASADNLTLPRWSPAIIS
Sequence of STK3 (Q13188 whole entry): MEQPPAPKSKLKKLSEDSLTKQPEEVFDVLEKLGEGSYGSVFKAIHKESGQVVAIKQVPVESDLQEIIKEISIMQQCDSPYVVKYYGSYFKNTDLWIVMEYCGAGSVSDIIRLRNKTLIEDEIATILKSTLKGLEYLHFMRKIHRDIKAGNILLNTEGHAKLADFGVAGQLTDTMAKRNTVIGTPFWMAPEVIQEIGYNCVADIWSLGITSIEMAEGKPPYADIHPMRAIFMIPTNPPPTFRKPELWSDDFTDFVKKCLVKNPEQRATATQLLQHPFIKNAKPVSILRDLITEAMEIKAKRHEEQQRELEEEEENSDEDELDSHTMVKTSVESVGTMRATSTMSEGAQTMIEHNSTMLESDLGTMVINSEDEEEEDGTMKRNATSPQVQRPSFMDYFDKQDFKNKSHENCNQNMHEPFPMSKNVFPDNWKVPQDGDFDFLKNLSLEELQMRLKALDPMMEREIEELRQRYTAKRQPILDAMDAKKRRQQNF
Sequence of MAP3K2 (Q9Y2U5 whole entry): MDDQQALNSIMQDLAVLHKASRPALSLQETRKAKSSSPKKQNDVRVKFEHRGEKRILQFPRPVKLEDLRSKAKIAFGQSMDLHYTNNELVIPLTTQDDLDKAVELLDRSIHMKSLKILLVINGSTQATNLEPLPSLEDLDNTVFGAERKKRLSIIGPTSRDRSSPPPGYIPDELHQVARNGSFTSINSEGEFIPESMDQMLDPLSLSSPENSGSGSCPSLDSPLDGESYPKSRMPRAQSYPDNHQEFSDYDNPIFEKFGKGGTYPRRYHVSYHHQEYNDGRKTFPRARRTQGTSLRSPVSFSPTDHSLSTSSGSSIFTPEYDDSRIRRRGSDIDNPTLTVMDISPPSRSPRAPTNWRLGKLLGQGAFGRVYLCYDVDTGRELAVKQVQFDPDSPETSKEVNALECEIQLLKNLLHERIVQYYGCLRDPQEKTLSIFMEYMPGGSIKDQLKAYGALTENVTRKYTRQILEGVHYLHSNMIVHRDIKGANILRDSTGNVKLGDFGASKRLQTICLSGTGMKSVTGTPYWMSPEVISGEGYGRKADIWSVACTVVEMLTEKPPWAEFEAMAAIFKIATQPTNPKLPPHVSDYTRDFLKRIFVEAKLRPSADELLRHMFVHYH
Sequence of MELK (Q14680 whole entry): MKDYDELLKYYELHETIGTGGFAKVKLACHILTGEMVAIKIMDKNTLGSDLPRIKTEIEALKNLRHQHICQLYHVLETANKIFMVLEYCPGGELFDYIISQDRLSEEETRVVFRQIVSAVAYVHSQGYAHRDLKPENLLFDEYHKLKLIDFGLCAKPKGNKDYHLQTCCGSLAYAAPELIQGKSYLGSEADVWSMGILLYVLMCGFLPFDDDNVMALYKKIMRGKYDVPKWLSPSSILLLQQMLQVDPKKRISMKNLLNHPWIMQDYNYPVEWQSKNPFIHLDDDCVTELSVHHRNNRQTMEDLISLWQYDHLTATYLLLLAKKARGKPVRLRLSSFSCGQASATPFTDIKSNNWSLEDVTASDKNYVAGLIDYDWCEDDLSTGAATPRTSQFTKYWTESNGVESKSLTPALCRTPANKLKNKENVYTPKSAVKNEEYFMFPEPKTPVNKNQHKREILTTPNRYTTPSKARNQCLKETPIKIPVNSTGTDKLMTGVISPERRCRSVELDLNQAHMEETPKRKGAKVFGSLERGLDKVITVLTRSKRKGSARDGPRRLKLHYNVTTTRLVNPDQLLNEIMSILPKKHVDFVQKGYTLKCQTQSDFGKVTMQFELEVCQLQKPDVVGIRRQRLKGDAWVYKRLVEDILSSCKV
Sequence of BMP2K (Q9NSY1 whole entry): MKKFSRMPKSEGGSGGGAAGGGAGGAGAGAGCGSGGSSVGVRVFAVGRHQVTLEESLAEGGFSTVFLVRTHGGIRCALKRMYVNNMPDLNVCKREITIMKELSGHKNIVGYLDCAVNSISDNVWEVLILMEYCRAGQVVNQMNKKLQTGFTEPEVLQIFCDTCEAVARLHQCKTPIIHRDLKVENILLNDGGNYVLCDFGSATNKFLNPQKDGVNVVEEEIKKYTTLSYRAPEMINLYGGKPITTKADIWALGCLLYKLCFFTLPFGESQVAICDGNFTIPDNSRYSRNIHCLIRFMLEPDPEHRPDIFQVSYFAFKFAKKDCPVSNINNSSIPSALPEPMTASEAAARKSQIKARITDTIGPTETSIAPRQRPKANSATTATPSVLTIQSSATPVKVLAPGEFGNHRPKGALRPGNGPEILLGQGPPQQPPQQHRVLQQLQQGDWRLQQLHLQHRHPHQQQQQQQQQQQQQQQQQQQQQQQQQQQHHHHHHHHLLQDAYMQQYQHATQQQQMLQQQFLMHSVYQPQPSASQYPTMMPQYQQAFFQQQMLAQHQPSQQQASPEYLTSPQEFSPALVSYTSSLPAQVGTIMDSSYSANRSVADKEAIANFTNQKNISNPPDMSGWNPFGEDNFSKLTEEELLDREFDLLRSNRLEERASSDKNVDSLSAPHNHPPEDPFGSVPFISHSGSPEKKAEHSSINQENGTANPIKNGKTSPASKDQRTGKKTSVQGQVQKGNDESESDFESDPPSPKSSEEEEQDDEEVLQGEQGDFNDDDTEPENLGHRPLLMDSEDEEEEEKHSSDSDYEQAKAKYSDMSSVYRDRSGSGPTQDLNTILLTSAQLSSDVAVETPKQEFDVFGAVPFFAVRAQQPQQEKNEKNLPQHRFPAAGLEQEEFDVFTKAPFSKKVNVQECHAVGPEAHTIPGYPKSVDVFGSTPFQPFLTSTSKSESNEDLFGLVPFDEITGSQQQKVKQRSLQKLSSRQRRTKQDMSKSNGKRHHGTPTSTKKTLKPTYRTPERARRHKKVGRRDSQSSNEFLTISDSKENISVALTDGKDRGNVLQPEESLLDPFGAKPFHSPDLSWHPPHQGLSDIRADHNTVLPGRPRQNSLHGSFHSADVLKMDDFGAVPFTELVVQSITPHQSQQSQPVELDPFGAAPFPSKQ
Sequence of STK33 (Q9BYT3 whole entry): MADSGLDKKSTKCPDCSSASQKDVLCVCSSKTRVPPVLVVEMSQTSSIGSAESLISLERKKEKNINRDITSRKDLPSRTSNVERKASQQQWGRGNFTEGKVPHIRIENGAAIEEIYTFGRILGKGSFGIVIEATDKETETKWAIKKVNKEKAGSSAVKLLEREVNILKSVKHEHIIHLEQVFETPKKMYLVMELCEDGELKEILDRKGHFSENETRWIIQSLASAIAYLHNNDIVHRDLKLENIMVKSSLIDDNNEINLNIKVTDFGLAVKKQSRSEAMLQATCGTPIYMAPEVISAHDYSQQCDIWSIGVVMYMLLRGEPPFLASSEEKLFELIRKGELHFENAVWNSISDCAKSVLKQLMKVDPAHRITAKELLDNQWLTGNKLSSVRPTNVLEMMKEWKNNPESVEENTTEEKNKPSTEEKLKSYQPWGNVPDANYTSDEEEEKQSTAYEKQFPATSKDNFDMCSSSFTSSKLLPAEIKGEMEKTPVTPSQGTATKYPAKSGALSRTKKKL
Sequence of BRSK2 (Q8IWQ3 whole entry): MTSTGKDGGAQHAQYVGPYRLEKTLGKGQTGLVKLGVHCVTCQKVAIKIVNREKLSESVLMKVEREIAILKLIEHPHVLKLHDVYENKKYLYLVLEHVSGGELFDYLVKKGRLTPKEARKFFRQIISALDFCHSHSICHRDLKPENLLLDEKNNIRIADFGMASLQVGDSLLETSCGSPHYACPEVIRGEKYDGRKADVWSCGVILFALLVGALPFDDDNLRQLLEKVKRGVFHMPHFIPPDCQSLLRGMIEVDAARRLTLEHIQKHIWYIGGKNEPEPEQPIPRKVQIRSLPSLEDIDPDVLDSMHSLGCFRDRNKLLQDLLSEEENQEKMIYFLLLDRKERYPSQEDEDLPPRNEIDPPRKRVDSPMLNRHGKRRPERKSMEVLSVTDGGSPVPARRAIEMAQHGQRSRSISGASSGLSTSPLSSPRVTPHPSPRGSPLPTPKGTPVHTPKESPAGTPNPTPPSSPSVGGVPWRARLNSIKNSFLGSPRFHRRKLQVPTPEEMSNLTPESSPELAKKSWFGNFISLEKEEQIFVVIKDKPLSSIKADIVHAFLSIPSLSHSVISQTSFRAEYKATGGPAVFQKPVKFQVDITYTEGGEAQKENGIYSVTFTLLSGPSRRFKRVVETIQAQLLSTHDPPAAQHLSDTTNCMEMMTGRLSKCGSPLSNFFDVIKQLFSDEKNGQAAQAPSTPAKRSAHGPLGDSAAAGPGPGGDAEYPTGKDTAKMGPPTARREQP

For `CN1C(=O)[C@@H](N2CCc3c(nn(Cc4ccccc4)c3C(N)=O)C2=O)COc2cc(Cl)ccc21` [Compound 10, (S)-2-benzyl-6-(8-chloro-5-methyl-4-oxo-2,3,4,5-tetrahydrobenzo[b][1,4]oxazepin-3-yl)-7-oxo-4,5,6,7-tetrahydro-2H-pyrazolo[3,4-c]pyridine-3-carboxamide], the receptor occupancy at 1 µM [1] was -7.12%, the receptor occupancy at 1 µM [2] was -6.67% and the receptor occupancy at 1 µM [3] was 2.53%. The receptor occupancy at 1 µM [4] was 4.07%, the receptor occupancy at 1 µM [5] was -12.8% and the receptor occupancy at 1 µM [6] was 6.33%. It also gave a receptor occupancy at 1 µM [7] of -5.32%, a receptor occupancy at 1 µM [8] of 12.6% and a receptor occupancy at 1 µM [9] of 1.05%. It also gave a receptor occupancy at 1 µM [10] of -5.78%, a receptor occupancy at 1 µM [11] of 15.8% and a receptor occupancy at 1 µM [12] of -3.18%. It also gave a receptor occupancy at 1 µM [13] of 16%, a receptor occupancy at 1 µM [14] of 11.8% and a receptor occupancy at 1 µM [15] of 3.76%. For the same compound, the receptor occupancy at 1 µM [16] was -8.73%, the receptor occupancy at 1 µM [17] was 2.24% and the receptor occupancy at 1 µM [18] was -27.3%. It also gave a receptor occupancy at 1 µM [19] of -2.55%, a receptor occupancy at 1 µM [20] of 4.38% and a receptor occupancy at 1 µM [21] of -2.07%. It also gave a receptor occupancy at 1 µM [22] of 13.7%, a receptor occupancy at 1 µM [23] of 0.31% and a receptor occupancy at 1 µM [24] of 2.69%. The receptor occupancy at 1 µM [25] was -11.5%, the receptor occupancy at 1 µM [26] was 3.71% and the receptor occupancy at 1 µM [27] was -1.01%. The receptor occupancy at 1 µM [28] was -2.16%, the receptor occupancy at 1 µM [29] was 2.55% and the receptor occupancy at 1 µM [30] was -5.87%. The receptor occupancy at 1 µM [31] was 7.74%, the receptor occupancy at 1 µM [32] was 8% and the receptor occupancy at 1 µM [33] was -10.1%. It also gave a receptor occupancy at 1 µM [34] of 3.58%, a receptor occupancy at 1 µM [35] of -3.44% and a receptor occupancy at 1 µM [36] of -0.614%. The receptor occupancy at 1 µM [37] was -7.33%.
